According to US12454530B2, “Amido cyclohexane acid derivatives as LPA receptor inhibitors” (CHIESI FARMACEUTICI S.P.A., priority 2020, dated 2025):
Where two headings read alike, the source gives them in different places.

Legend:
BSEP = BSEP (Homo sapiens (Human), UniProt O95342); assay: BSEP inhibition: biliary clearance of Taurocolic Acid in sandwich-cultured human hepatocytes; format: in vitro ADME; details: 50 μM test compound, 10 μM TCA, human hepatocytes sandwich configuration; for inhibition at 10 min, 50 μM: sandwich-cultured cryopreserved human hepatocytes, probe Taurocolic Acid (TCA)
Chain of BSEP (O95342 whole entry): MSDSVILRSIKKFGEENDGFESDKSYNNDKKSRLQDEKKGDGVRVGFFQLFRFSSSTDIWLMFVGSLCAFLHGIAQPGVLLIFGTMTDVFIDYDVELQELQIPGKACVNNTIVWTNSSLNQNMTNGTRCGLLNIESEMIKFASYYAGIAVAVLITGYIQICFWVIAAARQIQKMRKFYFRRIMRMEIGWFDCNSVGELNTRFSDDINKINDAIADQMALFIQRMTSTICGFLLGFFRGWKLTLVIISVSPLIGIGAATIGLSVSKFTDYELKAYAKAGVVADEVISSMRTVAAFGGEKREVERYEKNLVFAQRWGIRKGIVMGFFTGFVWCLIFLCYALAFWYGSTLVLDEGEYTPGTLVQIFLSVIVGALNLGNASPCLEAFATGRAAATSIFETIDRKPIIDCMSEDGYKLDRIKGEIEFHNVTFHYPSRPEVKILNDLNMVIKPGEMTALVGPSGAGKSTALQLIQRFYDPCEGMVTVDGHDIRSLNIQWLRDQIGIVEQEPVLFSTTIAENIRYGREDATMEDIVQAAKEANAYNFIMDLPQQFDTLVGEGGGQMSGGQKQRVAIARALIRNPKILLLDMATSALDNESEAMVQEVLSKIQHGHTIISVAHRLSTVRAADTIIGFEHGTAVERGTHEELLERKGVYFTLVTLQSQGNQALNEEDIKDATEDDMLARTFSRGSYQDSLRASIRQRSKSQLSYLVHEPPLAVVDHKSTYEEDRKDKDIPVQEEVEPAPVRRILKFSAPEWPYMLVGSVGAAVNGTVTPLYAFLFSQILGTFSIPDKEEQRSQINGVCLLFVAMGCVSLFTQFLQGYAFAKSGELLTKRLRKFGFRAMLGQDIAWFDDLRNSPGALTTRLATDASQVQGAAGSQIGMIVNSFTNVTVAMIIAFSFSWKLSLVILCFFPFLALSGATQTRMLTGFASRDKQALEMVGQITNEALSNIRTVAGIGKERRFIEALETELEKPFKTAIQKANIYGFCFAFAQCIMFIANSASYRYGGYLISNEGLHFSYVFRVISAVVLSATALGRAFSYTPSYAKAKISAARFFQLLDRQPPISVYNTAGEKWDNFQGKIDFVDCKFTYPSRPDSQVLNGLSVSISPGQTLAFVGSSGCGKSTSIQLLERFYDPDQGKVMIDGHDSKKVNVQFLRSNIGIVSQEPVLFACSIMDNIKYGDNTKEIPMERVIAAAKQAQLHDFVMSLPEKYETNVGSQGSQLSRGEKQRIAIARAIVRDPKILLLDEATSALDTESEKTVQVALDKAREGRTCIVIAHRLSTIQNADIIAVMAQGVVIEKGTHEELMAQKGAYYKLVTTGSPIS
Experimental: BSEP inhibition was evaluated using human hepatocytes cultured between two layer of collagen (sandwich configuration). In this culture condition, hepatocytes express relevant transporters including BSEP and retain the bile canalicular structure. An inhibition of the biliary clearance of Taurocolic Acid (TCA), a known BSEP substrate, was used to assess BSEP interaction.
BSEP inhibition was evaluated using cryopreserved human hepatocytes (Plateable Cryopreserved Human Hepatocytes, BIOIVT) cultured for 5 day between two layer of collagen (sandwich configuration). In this culture condition, hepatocytes express relevant transporters including BSEP and retain the bile canalicular structure.
On day 5 of culture, hepatic cells are ready for the assay and the biliary clearance of Taurocolic Acid (TCA), a known BSEP substrate, can be estimated in presence and in absence of compound of interest.
The sample solution was prepared dissolving test compound and TCA in DMSO and then diluted in the Assay Buffer: Hank's Balance Salt Solution (HBSS+) warmed at 37° C. before use, to give the 10 μM TCA working solution with and without 50 μM of test compound. Hepatocytes were incubated for 10 minutes with these working solutions allowing TCA to be excreted into bile. At the end of incubation, the working solution was aspirated, and the content of the bile was collected through the addition of HBSS Modified without Ca2+/Mg2+(HBSS−). The presence of Ca2+ in the buffer is required to maintain the integrity of the tight junctions, the diffusional barrier between the canalicular lumen and extracellular space. Instead, incubation of cells in Ca2+-free buffer disrupts the tight junctions and opens the bile canalicular structures, allowing the bile content to be released and collect for HPLC-MS/MS analysis.
The in vitro biliary clearance of TCA incubated with and without test compounds is calculated according to the following formula:
where • Acc. Bile=(TCA amount in HBSS (−) buffer samples (pmol/mg protein)*Volume of each samples (mL))/Protein content per well (mg) • AUC=Incubation time (min)*T0 Concentration. T0 concentration is the initial TCA concentration in the medium.
The inhibition of BSEP was calculated as percentage of inhibition of TCA biliary clearance in presence of compound of interest, according to the following formula: BSEP inhibition %=100−(TCA ClBil with test compound*100)
TCA ClBil without test compound.

[1] = biological target: human recombinant LPA1 expressed in CHO cells (Homo sapiens (Human), UniProt Q92633); assay: LPA1 antagonist FLIPR calcium assay in CHO-hLPA1 cells; format: cell-based
Chain of human recombinant LPA1 expressed in CHO cells (Q92633 whole entry): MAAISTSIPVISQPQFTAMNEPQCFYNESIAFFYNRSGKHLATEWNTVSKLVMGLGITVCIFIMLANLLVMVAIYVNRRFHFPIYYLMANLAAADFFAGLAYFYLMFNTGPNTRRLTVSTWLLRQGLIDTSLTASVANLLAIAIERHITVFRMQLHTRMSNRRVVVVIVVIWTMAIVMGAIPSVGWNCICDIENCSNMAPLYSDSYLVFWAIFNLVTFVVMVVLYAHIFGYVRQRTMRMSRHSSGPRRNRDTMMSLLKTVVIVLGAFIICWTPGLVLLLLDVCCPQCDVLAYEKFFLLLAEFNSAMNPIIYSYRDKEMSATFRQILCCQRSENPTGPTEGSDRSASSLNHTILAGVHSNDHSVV
Experimental: The effectiveness of compounds of the present invention as LPA1 antagonists can be determined at the human recombinant LPA1 expressed in CHO cells, using a FLIPR assay in 384 well format.
CHO-hLPA1 cell lines are cultured in a humidified incubator at 5% CO2 in DMEM/F-12 (1:1) MIXTURE with 2 mM Glutamax, supplemented with 10% of Foetal Bovine Serum, 1 mM Sodium Pyruvate, 11 mM Hepes and 1× Penicillin/Streptomycin. […] Serial dilutions (1:3 or 1:4, 11 points CRC) of compounds are performed in 100% DMSO at 200× the final concentration. […] The final concentration of DMSO in the assay will be 0.5% in each well. Medium is removed by aspiration and cells are then incubated with 30 μl of a loading solution containing 5 μM of the cytoplasmic Ca2+ indicator Cal-520 AM in Assay Buffer containing 2.5 mM probenecid for 30 min at 37° C. incubator (cell loading). The loaded cell plates are transferred into the FLIPR instrument and calcium responses are monitored during the on-line addition protocols. For testing of compounds, after the cell loading, 10 μl/well of 4× antagonists' solution was added onto the cells. After 30 min pre-incubation (at 37° C.), 10 μl/well of 5× concentrated LPA EC80 was added and Ca2+ mobilization responses was followed during the on-line addition protocol. Intracellular peak fluorescence values subtracted by baseline fluorescence are exported and analysed to determine IC50 values, respectively. The calcium response is expressed as percentage of the maximal inhibition of the EC80 agonist response.
The raw data (peak height expressed as relative fluorescence units) are normalized and transformed into “percent of inhibition”. Curve fitting and pIC50 (−LogIC50) estimations are carried out using a four-parameter logistic model using XLfit Software.

[2] = range of activity, CHO-hLPA1, LPA EC80, Ca2+ mobilization, read-out: LPA1 IC50

Structure (SMILES) | IC50 [1, 2] | IC50 ([1]; comparative compound, read-out: IC50 on receptor LPA1) | BSEP Inhibition at 50 μM (BSEP) | inhibition at 10 min, 50 μM (BSEP)
Cc1noc(-c2ccc(N(C)C(=O)[C@H]3CCCC[C@@H]3C(=O)O)cn2)c1NC(=O)O[C@H](C)c1cccnc1Cl [Example 30, (1S,2S)-2-((6-(4-((((R)-1-(2-chloropyridin-3-yl)ethoxy)carbonyl)amino)-3-methylisoxazol-5-yl)pyridin-3-yl)(methyl)carbamoyl)cyclohexane-1-carboxylic acid] | 250 to 600 nM |  |  | ≤ 50%
Cc1nc(-c2nnn(C)c2NC(=O)O[C@H](C)c2ccccc2Cl)ccc1NC(=O)[C@H]1CCCC[C@@H]1C(=O)O [Example 3, (1S,2S)-2-((6-(5-((((R)-1-(2-chlorophenyl)ethoxy)carbonyl)amino)-1-methyl-1H-1,2,3-triazol-4-yl)-2-methylpyridin-3-yl)carbamoyl)cyclohexane-1-carboxylic acid] | < 50 nM |  |  | ≤ 50%
Cc1nc(-c2onc(C)c2NC(=O)O[C@H](C)c2cccnc2)ccc1NC(=O)[C@H]1CCCC[C@@H]1C(=O)O [Example 15, (1S,2S)-2-((2-methyl-6-(3-methyl-4-((((R)-1-(pyridin-3-yl)ethoxy)carbonyl)amino)isoxazol-5-yl)pyridin-3-yl)carbamoyl)cyclohexane-1-carboxylic acid] | 50 to 250 nM |  |  | ≤ 50%
Cc1nc(-c2onc(C)c2NC(=O)OC(C)c2cccnc2F)ccc1NC(=O)[C@H]1CCCC[C@@H]1C(=O)O (single isomer, unassigned) [Example 20] | 50 to 250 nM |  |  | ≤ 50%
CCn1nnc(-c2ccc(NC(=O)[C@H]3CCCC[C@@H]3C(=O)O)c(C)n2)c1NC(=O)O[C@H](C)c1ccccc1Cl [Example 48, (1S,2S)-2-((6-(5-((((R)-1-(2-chlorophenyl)ethoxy)carbonyl)amino)-1-ethyl-1H-1,2,3-triazol-4-yl)-2-methylpyridin-3-yl)carbamoyl)cyclohexane-1-carboxylic acid] | < 50 nM |  |  | ≤ 50%
Cc1nc(-c2cnn(C)c2NC(=O)O[C@H](C)C2CCCC2)ccc1NC(=O)[C@H]1CCCC[C@@H]1C(=O)O [Example 51, (1S,2S)-2-((6-(5-((((R)-1-cyclopentylethoxy)carbonyl)amino)-1-methyl-1H-pyrazol-4-yl)-2-methylpyridin-3-yl)carbamoyl)cyclohexane-1-carboxylic acid] | 250 to 600 nM |  |  | ≤ 50%
Cc1nc(-c2onc(C)c2NC(=O)O[C@H](C)c2nccs2)ccc1NC(=O)[C@H]1CCCC[C@@H]1C(=O)O [Example 22, (1S,2S)-2-((2-methyl-6-(3-methyl-4-((((R)-1-(thiazol-2-yl)ethoxy)carbonyl)amino)isoxazol-5-yl)pyridin-3-yl)carbamoyl)cyclohexane-1-carboxylic acid] | 250 to 600 nM |  |  | ≤ 50%
Cc1nc(-c2cnn(C)c2NC(=O)O[C@H](C)c2ccccc2)ccc1NC(=O)[C@H]1CCCC[C@@H]1C(=O)O [Example 43, (1S,2S)-2-((2-methyl-6-(1-methyl-5-((((R)-1-phenylethoxy)carbonyl)amino)-1H-pyrazol-4-yl)pyridin-3-yl)carbamoyl)cyclohexane-1-carboxylic acid] | 50 to 250 nM |  |  | ≤ 50%
Cc1nc(-c2nnn(C)c2NC(=O)O[C@H](C)c2ccccc2F)ccc1NC(=O)[C@H]1CCCC[C@@H]1C(=O)O [Example 47, (1S,2S)-2-((6-(5-((((R)-1-(2-fluorophenyl)ethoxy)carbonyl)amino)-1-methyl-1H-1,2,3-triazol-4-yl)-2-methylpyridin-3-yl)carbamoyl)cyclohexane-1-carboxylic acid] | < 50 nM |  |  | ≤ 50%
Cc1noc(-c2ccc(NC(=O)[C@H]3CCCC[C@@H]3C(=O)O)cn2)c1NC(=O)O[C@H](C)c1ccccc1 [Example 41, (1S,2S)-2-((6-(3-methyl-4-((((R)-1-phenylethoxy)carbonyl)amino)isoxazol-5-yl)pyridin-3-yl)carbamoyl)cyclohexane-1-carboxylic acid] | < 50 nM |  |  | ≤ 50%
Cc1nc(-c2onc(C)c2NC(=O)OC(C)c2cccnc2F)ccc1NC(=O)[C@H]1CCCC[C@@H]1C(=O)O (stereo partly drawn) [Example 19, (1S,2S)-2-((6-(4-(((1-(2-fluoropyridin-3-yl)ethoxy)carbonyl)amino)-3-methylisoxazol-5-yl)-2-methylpyridin-3-yl)carbamoyl)cyclohexane-1-carboxylic acid] | 50 to 250 nM |  |  | 
Cc1nc(-c2onc(C)c2NC(=O)O[C@H](C)c2cccnc2)ccc1NC(=O)C1CCCCC1C(=O)O (stereo partly drawn) [Example 33, Cis-2-((2-methyl-6-(3-methyl-4-((((R)-1-(pyridin-3-yl)ethoxy)carbonyl)amino)isoxazol-5-yl)pyridin-3-yl)carbamoyl)cyclohexane-1-carboxylic acid] | 250 to 600 nM |  |  | 
Cc1nc(-c2onc(C)c2NC(=O)O[C@H](C)c2ccccc2Cl)ccc1NC(=O)C1CCCCC1C(=O)O (single isomer, unassigned) [Example 14] |  |  | ≤50% | 

Second part, led by results:

IC50 [1, 2] | IC50 ([1]; comparative compound, read-out: IC50 on receptor LPA1) | Structure (SMILES) | BSEP Inhibition at 50 μM (BSEP) | inhibition at 10 min, 50 μM (BSEP)
< 50 nM |  | C[C@@H](OC(=O)Nc1ccsc1-c1ccc(NC(=O)C2CCCCC2C(=O)O)cc1)c1ccccc1Cl (single isomer, unassigned) [Example 10] | ≤50% | 
 | > 1000 nM | Cc1noc(-c2ccc(NC(=O)C3CCCCC3C(=O)O)cc2)c1NC(=O)O[C@H](C)c1cccnc1 (stereo partly drawn) [comparative Example B, 2-((4-(3-methyl-4-((((R)-1-(pyridin-3-yl)ethoxy)carbonyl)amino)isoxazol-5-yl)phenyl)carbamoyl)cyclohexane-1-carboxylic acid, reference compound] |  | 
< 50 nM |  | C[C@@H](OC(=O)Nc1c(-c2ccc(NC(=O)[C@H]3CCCC[C@@H]3C(=O)O)c(F)n2)nnn1C)c1ccccc1Cl [Example 53, (1S,2S)-2-((6-(5-((((R)-1-(2-chlorophenyl)ethoxy)carbonyl)amino)-1-methyl-1H-1,2,3-triazol-4-yl)-2-fluoropyridin-3-yl)carbamoyl)cyclohexane-1-carboxylic acid] |  | ≤ 50%
250 to 600 nM |  | C[C@@H](OC(=O)Nc1ccsc1-c1ccc(NC(=O)C2CCCCC2C(=O)O)cc1)c1ccccc1Cl (single isomer, unassigned) [Example 8] |  | 
< 50 nM |  | C[C@@H](OC(=O)Nc1c(-c2ccc(NC(=O)C3CCCCC3C(=O)O)cc2)cnn1C)c1ccccc1Cl (single isomer, unassigned) [Example 4] |  | 
< 50 nM |  | C[C@@H](OC(=O)Nc1ccsc1-c1ccc(NC(=O)C2CCCCC2C(=O)O)cc1)c1ccccc1Cl (stereo partly drawn) [Example 6, Cis-2-((4-(3-((((R)-1-(2-chlorophenyl)ethoxy)carbonyl)amino)thiophen-2-yl)phenyl)carbamoyl)cyclohexane-1-carboxylic acid] |  | 
250 to 600 nM |  | C[C@@H](OC(=O)Nc1c(-c2ccc(NC(=O)C3CCCCC3C(=O)O)cc2)cnn1C)c1ccccc1Cl (single isomer, unassigned) [Example 5] |  | 
250 to 600 nM |  | C[C@@H](OC(=O)Nc1ccsc1-c1ccc(NC(=O)[C@H]2CCCC[C@@H]2C(=O)O)cn1)c1ccccc1Cl [Example 21, (1S,2S)-2-((6-(3-((((R)-1-(2-chlorophenyl)ethoxy)carbonyl)amino)thiophen-2-yl)pyridin-3-yl)carbamoyl)cyclohexane-1-carboxylic acid] |  | 
